Reference: ChEMBL document CHEMBL6103571, “Design, synthesis, and evaluation of carboxylic acid-substituted celecoxib isosteres as potential anti-inflammatory agents” (Eur J Med Chem, 2025)
Active and inactive are the calls of the source. The calls are words filed in the database; no cut-off is given here.

Legend:
RAW264.7 [1] = assay: Anti-inflammatory activity against LPS-induced mouse RAW264.7 cells assessed as inhibition of NO production at 20 uM preincubated for 1 hrs followed by LPS addition and measured after 24 hrs by Griess reagent-based microplate reader analysis relative to control; type: functional; details: time 25 hrs
[2] = Cytotoxicity against mouse RAW264.7 cells incubated for 24 hrs by MTT assay; type: toxicity, cell-based
[3] = Toxicity in Sprague-Dawley rat assessed as ulcer index at 100 mg/kg, po administrated for 3 days and measured after 2 hrs post last dose; type: organism-based; details: in vivo, 74 h
[4] = Toxicity in male Sprague-Dawley rat assessed as average number of ulcers at 100 mg/kg, po administrated for 3 days and measured after 2 hrs post last dose; type: organism-based; details: in vivo, 74 h
[5] = Toxicity in male Sprague-Dawley rat assessed as ulcer score at 100 mg/kg, po administrated for 3 days and measured after 2 hrs post last dose; type: organism-based; details: in vivo, 74 h
Mus musculus [6] = assay: Anti-inflammatory activity in TPA-induced male Kunming mouse model of ear edema assessed as reduction in ear erythema at 1.0 mg, TOP pre-administered via ear for 30 mins followed by TPA addition and measured after 6 hrs; type: functional, organism-based; details: time 6.5 hrs
Mus musculus [7] = assay: Anti-inflammatory activity in TPA-induced male Kunming mouse model of ear edema assessed as reduction in ear weight at 1.0 mg, TOP pre-administered via ear for 30 mins followed by TPA addition and measured after 6 hrs; type: functional, organism-based; details: time 6.5 hrs
Mus musculus [8] = assay: Anti-inflammatory activity in TPA-induced male Kunming mouse model of ear edema assessed as reduction in ear thickness at 1.0 mg, TOP pre-administered via ear for 30 mins followed by TPA addition and measured after 6 hrs; type: functional, organism-based; details: time 6.5 hrs
[9] = Toxicity in Sprague-Dawley rat assessed as average number of ulcers at 50 mg/kg, po administrated for 3 days and measured after 2 hrs; type: organism-based; details: in vivo, 74 h
[10] = Toxicity in Sprague-Dawley rat assessed as ulcer index at 50 mg/kg, po administrated for 3 days and measured after 2 hrs; type: organism-based; details: in vivo, 74 h
[11] = Toxicity in Sprague-Dawley rat assessed as ulcer score at 50 mg/kg, po administrated for 3 days and measured after 2 hrs; type: organism-based; details: in vivo, 74 h
Mus musculus [12] = assay: Anti-inflammatory activity against TPA-induced Kunming mouse ear edema model assessed as downregulation of COX-2 level in ear homogenate pre-administered topically via ear for 30 mins followed by TPA addition and measured after 6 hrs by Western blot analysis; type: functional, organism-based; details: dose 0.5-1 mg, route top, time 6.5 hrs
[13] = biological target: T1, Prostaglandin G/H synthase 2 (Homo sapiens, UniProt P35354); assay: Inhibition of recombinant human COX-2 using arachidonic acid as substrate preincubated for 10 mins followed by substrate addition and measured after 2 mins by ELISA
T1 sequence (P35354 whole entry): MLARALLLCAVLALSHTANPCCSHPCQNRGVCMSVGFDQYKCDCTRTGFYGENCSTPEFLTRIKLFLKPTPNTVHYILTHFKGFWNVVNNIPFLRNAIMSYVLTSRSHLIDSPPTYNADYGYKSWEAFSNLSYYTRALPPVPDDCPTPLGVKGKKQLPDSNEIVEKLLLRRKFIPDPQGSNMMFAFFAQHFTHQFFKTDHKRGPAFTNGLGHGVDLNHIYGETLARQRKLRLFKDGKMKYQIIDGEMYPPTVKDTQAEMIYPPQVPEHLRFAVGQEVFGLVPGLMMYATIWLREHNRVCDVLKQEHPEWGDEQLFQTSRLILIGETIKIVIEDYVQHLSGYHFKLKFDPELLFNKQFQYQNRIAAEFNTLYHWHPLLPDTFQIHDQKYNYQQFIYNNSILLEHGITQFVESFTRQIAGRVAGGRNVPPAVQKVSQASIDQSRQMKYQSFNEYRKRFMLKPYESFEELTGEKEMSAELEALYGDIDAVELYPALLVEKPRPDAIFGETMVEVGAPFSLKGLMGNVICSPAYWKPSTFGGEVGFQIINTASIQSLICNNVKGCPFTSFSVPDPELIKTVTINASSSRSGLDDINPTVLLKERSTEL

[14] = biological target: T2, Prostaglandin G/H synthase 1 (Ovis aries, UniProt P05979); assay: Inhibition of ovine COX-1 using arachidonic acid as substrate preincubated for 10 mins followed by substrate addition and measured after 2 mins by ELISA
T2 sequence (P05979 whole entry): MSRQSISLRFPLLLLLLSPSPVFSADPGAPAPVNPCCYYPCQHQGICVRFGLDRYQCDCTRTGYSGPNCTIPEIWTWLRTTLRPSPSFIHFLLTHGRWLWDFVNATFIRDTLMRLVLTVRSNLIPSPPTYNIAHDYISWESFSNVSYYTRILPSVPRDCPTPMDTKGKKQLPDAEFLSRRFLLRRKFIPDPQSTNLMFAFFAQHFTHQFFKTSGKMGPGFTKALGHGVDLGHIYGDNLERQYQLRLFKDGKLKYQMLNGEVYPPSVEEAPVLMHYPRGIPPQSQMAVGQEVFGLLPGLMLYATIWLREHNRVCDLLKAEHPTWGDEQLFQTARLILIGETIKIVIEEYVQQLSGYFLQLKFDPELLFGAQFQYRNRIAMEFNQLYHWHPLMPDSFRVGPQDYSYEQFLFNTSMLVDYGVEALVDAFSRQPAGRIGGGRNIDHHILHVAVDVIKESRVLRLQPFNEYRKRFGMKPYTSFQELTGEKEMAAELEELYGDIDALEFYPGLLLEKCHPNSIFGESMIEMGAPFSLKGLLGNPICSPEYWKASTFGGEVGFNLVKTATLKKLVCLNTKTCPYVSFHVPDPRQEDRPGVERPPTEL

Mus musculus [15] = assay: Anti-inflammatory activity in TPA-induced male Kunming mouse model of ear edema assessed as reduction in ear weight at 0.5 to 1.0 mg, TOP pre-administered via ear for 30 mins followed by TPA addition and measured after 6 hrs; type: functional, organism-based; details: dose 0.5-1 mg, time 6.5 hrs
RAW264.7 [16] = assay: Anti-inflammatory activity in LPS-induced mouse RAW264.7 cells assessed as downregulation of COX-2 expression at 12.5 to 50 uM preincubated for 1 hrs followed by LPS addition for 24 hrs by Western blotting analysis; type: functional, cell-based; details: dose 12.5-50 µM, time 25.0 hrs
RAW264.7 [17] = assay: Anti-inflammatory activity in LPS-induced mouse RAW264.7 cells assessed as reduction in PGE2 production preincubated for 1 hrs followed by LPS addition for 24 hrs by ELISA; type: functional, cell-based; details: dose 12.5-50 µM, time 25.0 hrs
[18] = Selectivity index, ratio of IC50 for ovine COX-1 to IC50 for human COX-2
Mus musculus [19] = assay: Anti-inflammatory activity in TPA-induced male Kunming mouse model of ear edema assessed as reduction in ear erythema pre-administered topically via ear for 30 mins followed by TPA addition and measured after 6 hrs; type: functional, organism-based; details: dose 0.5-1 mg, route top, time 6.5 hrs
Mus musculus [20] = assay: Anti-inflammatory activity against TPA-induced Kunming mouse ear edema model assessed as inhibition of PGE2 production in ear homogenate pre-administered topically via ear for 30 mins followed by TPA addition and measured after 6 hrs by ELISA; type: functional, organism-based; details: dose 0.5-1 mg, route top, time 6.5 hrs
Mus musculus [21] = assay: Anti-inflammatory activity in TPA-induced male Kunming mouse model of ear edema assessed as reduction in ear thickness at 0.5 to 1.0 mg, TOP pre-administered via ear for 30 mins followed by TPA addition and measured after 6 hrs; type: functional, organism-based; details: dose 0.5-1 mg, time 6.5 hrs

Row | Structure (SMILES) | inhibition at 20 µM (RAW264.7 [1]) [%] | IC50 at 24 h [2] [µM] | other results
1 | NS(=O)(=O)c1ccc(-c2nnc(SCC(=O)O)n2-c2cccc(Br)c2)cc1 | 14.1 | > 100 | –
2 | Cc1ccc(-c2cc(C(F)(F)F)nn2-c2ccc(S(N)(=O)=O)cc2)cc1 [CELECOXIB] | 38.1 | – | UI [3]: 6.3; Activity [4]: 0.8; Activity [5]: 1.5; Activity (Mus musculus [6]): Active; Activity (Mus musculus [7]): Active; Activity (Mus musculus [8]): Active
3 | NS(=O)(=O)c1ccc(-c2nnc(SCC(=O)O)n2-c2ccc(C(F)(F)F)cc2)cc1 | 22.6 | 62.2 | –
4 | NS(=O)(=O)c1ccc(-c2nnc(SCC(=O)O)n2-c2ccccc2Cl)cc1 | 20.9 | > 100 | –
5 | NS(=O)(=O)c1ccc(-c2nnc(SCC(=O)O)n2-c2ccccc2Br)cc1 | 14 | > 100 | –
6 | NS(=O)(=O)c1ccc(-c2nnc(SCC(=O)O)n2-c2ccccc2[N+](=O)[O-])cc1 | 13.8 | > 100 | –
7 | NS(=O)(=O)c1ccc(-c2nnc(SCC(=O)O)n2-c2ccccc2I)cc1 | 17.9 | > 100 | –
8 | NS(=O)(=O)c1ccc(-c2nnc(SCC(=O)O)n2-c2ccc(Cl)cc2)cc1 | 22.4 | > 100 | –
9 | NS(=O)(=O)c1ccc(-c2nnc(SCC(=O)O)n2-c2cccc(C(F)(F)F)c2)cc1 | 21.1 | > 100 | –
10 | NS(=O)(=O)c1ccc(-c2nnc(SCC(=O)O)n2-c2cccc(Cl)c2)cc1 | 19.1 | > 100 | –
11 | COc1ccc(-n2c(SCC(=O)O)nnc2-c2ccc(S(N)(=O)=O)cc2)cc1 | 18.7 | > 100 | –
12 | COc1ccc2c(c1)c(CC(=O)O)c(C)n2C(=O)c1ccc(Cl)cc1 [INDOMETHACIN] | – | – | Activity [9]: 3.18; UI [10]: 28.78; Activity [11]: 15.6
13 | COc1ccccc1-n1c(SCC(=O)O)nnc1-c1ccc(S(N)(=O)=O)cc1 | 12.9 | > 100 | –
14 | NS(=O)(=O)c1ccc(-c2nnc(SCC(=O)O)n2-c2ccc([N+](=O)[O-])cc2)cc1 | 23.9 | > 100 | –
15 | NS(=O)(=O)c1ccc(-c2nnc(SCC(=O)O)n2-c2cccc([N+](=O)[O-])c2)cc1 | 13.2 | > 100 | –
16 | NS(=O)(=O)c1ccc(-c2nnc(SCC(=O)O)n2-c2ccccc2F)cc1 | 13.6 | > 100 | –
17 | NS(=O)(=O)c1ccc(-c2nnc(SCC(=O)O)n2-c2ccc(I)cc2)cc1 | 30.8 | > 100 | Activity (Mus musculus [12]): Dose-dependent-effect; UI [3]: 5.2; IC50 [13]: 0.054 µM; Activity [4]: 0.6; IC50 [14]: 16 µM; Activity (Mus musculus [15]): Active; Activity [5]: 0.6; Activity (RAW264.7 [16]): Active; Activity (RAW264.7 [17]): Dose-dependent-effect; Ratio IC50 [18]: 296; Activity (Mus musculus [19]): Dose-dependent-effect; Activity (Mus musculus [20]): Dose-dependent-effect; Activity (Mus musculus [21]): Active
18 | Cc1ccc(-n2c(SCC(=O)O)nnc2-c2ccc(S(N)(=O)=O)cc2)cc1 | 22.3 | 74.6 | –
19 | Cc1cccc(-n2c(SCC(=O)O)nnc2-c2ccc(S(N)(=O)=O)cc2)c1 | 17.7 | 76.6 | –
20 | NS(=O)(=O)c1ccc(-c2nnc(SCC(=O)O)n2-c2ccc(Br)cc2)cc1 | 21 | > 100 | –
21 | NS(=O)(=O)c1ccc(-c2nnc(SCC(=O)O)n2-c2ccccc2C(F)(F)F)cc1 | 20.7 | > 100 | –
22 | NS(=O)(=O)c1ccc(-c2nnc(SCC(=O)O)n2-c2cccc(I)c2)cc1 | 22.5 | > 100 | –
23 | NS(=O)(=O)c1ccc(-c2nnc(SCC(=O)O)n2-c2ccc(F)cc2)cc1 | 15.4 | > 100 | –
24 | NS(=O)(=O)c1ccc(-c2nnc(SCC(=O)O)n2-c2cccc(F)c2)cc1 | 15.1 | > 100 | –
25 | Cc1ccccc1-n1c(SCC(=O)O)nnc1-c1ccc(S(N)(=O)=O)cc1 | 18.8 | > 100 | –
26 | COc1cccc(-n2c(SCC(=O)O)nnc2-c2ccc(S(N)(=O)=O)cc2)c1 | 15.6 | > 100 | –
